Some test systems named below: COLO 205 colon; 786-0 renal; OVCAR-8 ovarian; HCT-15 colon; SR leukemia; SK-MEL-2 melanoma; RPMI-8226 leukemia; M14 melanoma; HOP-92 NSCLC; MDA-N; HT29 colon.
Holding throughout (test): DTP human tumour cell line panel, 48 h

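Interpolation was linear, between the two tested concentrations surrounding the appropriate level; five concentrations were tested over 48 hours in 96-well plates. At the TGI there is no net growth.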 Where a SMILES comes first, the peptide text is derived from it. The star is where a group is joined. Boc = CC(C)(C)OC(=O)*; OBn = c1ccc(CO*)cc1

From PubChem BioAssay (NCI) come the findings set out here.

The TGI is the concentration giving total growth inhibition. For `Cc1ccc(-c2n[nH]c(=O)[nH]2)cc1[N+](=O)[O-]`, the total growth inhibition concentration (TGI) in the assay with COLO 205 colon, in the assay on 786-0 renal, with OVCAR-8 ovarian, in the assay with HCT-15 colon, in the assay on SR leukemia and in the assay with SK-MEL-2 melanoma was over 100 µM throughout. For the same compound, the TGI in the assay with RPMI-8226 leukemia, with M14 melanoma, in the assay with HOP-92 NSCLC, in the assay on MDA-N and with HT29 colon was over 100 µM each time.
On to `COc1ccc(C2C(C#N)=C(S)N(C3OC(CO)C(O)C(O)C3O)C(c3ccccc3)=C2C(C)=O)cc1` (configuration not stated), for which the TGI with COLO 205 colon, with 786-0 renal, in the assay with OVCAR-8 ovarian, in the assay on HCT-15 colon, in the assay on SR leukemia and in the assay on SK-MEL-2 melanoma was over 100 µM in each case. For the same compound, the total growth inhibition concentration (TGI) in the assay with RPMI-8226 leukemia, with M14 melanoma, in the assay with HOP-92 NSCLC, in the assay with MDA-N and in the assay on HT29 colon was over 100 µM each time.
Consider `CC1(C)Oc2ccc(NC(=O)CCC(N)C(=O)O)cc2O1` (configuration not stated), for which the TGI in the assay on COLO 205 colon, in the assay with 786-0 renal, in the assay with OVCAR-8 ovarian, in the assay on HCT-15 colon, in the assay on SR leukemia and in the assay with SK-MEL-2 melanoma was over 100 µM throughout. Besides, the TGI in the assay on RPMI-8226 leukemia, with M14 melanoma, in the assay with HOP-92 NSCLC, in the assay with MDA-N and in the assay on HT29 colon was over 100 µM throughout.
With `COc1cc(C2S/C(=C/c3ccccc3)C(=O)N2c2ccc(Cl)c(Cl)c2)cc(OC)c1OC` (configuration not stated), the TGI was over 100 µM in the assay with COLO 205 colon; over 100 µM in the assay with 786-0 renal; over 100 µM in the assay with OVCAR-8 ovarian; over 100 µM in the assay with HCT-15 colon; over 100 µM in the assay on SR leukemia; over 59.6 µM in the assay on SK-MEL-2 melanoma. Further, the TGI with RPMI-8226 leukemia is over 100 µM; with M14 melanoma, over 100 µM; in the assay on HOP-92 NSCLC, over 84.2 µM; with MDA-N it was over 84.9 µM; in the assay on HT29 colon, over 100 µM.
Turning to `CC(C)(C)OC(=O)NC(Cc1ccccc1)C(=O)NC(Cc1ccccc1)C(=O)NCC(=O)OCc1ccccc1` (stereo not drawn) (Boc-Phe-Phe-Gly-OBn; configuration not given here), the TGI was over 100 µM in the assay on COLO 205 colon; 31.6 µM in the assay with 786-0 renal; over 100 µM in the assay on OVCAR-8 ovarian; 64.7 µM with HCT-15 colon; 44.6 µM in the assay with SR leukemia; over 100 µM with SK-MEL-2 melanoma. Also, the concentration for total growth inhibition (TGI) in the assay on RPMI-8226 leukemia was 39.6 µM; in the assay on M14 melanoma it was 62.7 µM; in the assay with HOP-92 NSCLC, over 100 µM; in the assay with MDA-N, 53.3 µM; in the assay on HT29 colon, 40.4 µM.
`COc1cc2c(/C=C3/C(=O)N(c4ccccc4)c4ccccc43)c(Cl)[nH]c2cc1C`: the TGI is 7.05 µM in the assay with COLO 205 colon; over 44.6 µM with 786-0 renal; over 31.6 µM in the assay on OVCAR-8 ovarian; 11.4 µM in the assay on HCT-15 colon; 30.5 µM with SR leukemia; 8.25 µM with SK-MEL-2 melanoma. For the same compound, the TGI in the assay on RPMI-8226 leukemia is 7.01 µM; in the assay with M14 melanoma, 12.9 µM; in the assay on HOP-92 NSCLC it was over 78.4 µM; with MDA-N, 5.52 µM; with HT29 colon it was over 31 µM.
As to `COc1c2cc(C(C)(C)C)cc1Cc1cccc(c1O)Cc1cc(C(C)(C)C)cc(c1OC)Cc1cccc(c1O)Cc1cc(C(C)(C)C)cc(c1OC)Cc1cccc(c1O)C2`, the TGI with COLO 205 colon, with 786-0 renal, with OVCAR-8 ovarian, in the assay with HCT-15 colon, in the assay with SR leukemia and in the assay on SK-MEL-2 melanoma was over 100 µM each time. In addition, the TGI in the assay on RPMI-8226 leukemia, in the assay with M14 melanoma, in the assay with HOP-92 NSCLC, in the assay with MDA-N and in the assay with HT29 colon was over 100 µM throughout.
`O=C(CNc1ccc(Cl)cc1Cl)NC1C=Cc2ccc(S(=O)(=O)Nc3ccc(Cl)cc3Cl)cc2C1=O` (configuration not stated): the concentration for total growth inhibition (TGI) in the assay with COLO 205 colon, in the assay on 786-0 renal, with OVCAR-8 ovarian, in the assay with HCT-15 colon, with SR leukemia and in the assay on SK-MEL-2 melanoma was over 100 µM in each case. The total growth inhibition concentration (TGI) in the assay on RPMI-8226 leukemia, in the assay with M14 melanoma, with HOP-92 NSCLC, with MDA-N and in the assay with HT29 colon was over 100 µM throughout.
Turning to `O=C1c2cccc3cccc(c23)C(=O)N1CCCNOCCONCCCN1C(=O)c2cccc3cccc(c23)C1=O`, the total growth inhibition concentration (TGI) in the assay with COLO 205 colon, with 786-0 renal, in the assay with OVCAR-8 ovarian, in the assay with HCT-15 colon, with SR leukemia and in the assay with SK-MEL-2 melanoma was over 100 µM throughout. The concentration for total growth inhibition (TGI) with RPMI-8226 leukemia was 74.4 µM; with M14 melanoma, over 100 µM; in the assay with HOP-92 NSCLC it was over 100 µM; with MDA-N, over 100 µM; in the assay with HT29 colon, over 100 µM.
As for `Cn1c2ccccc2c2c3c(c4c5ccccc5n(C)c4c21)C(=O)c1ccccc1C3=O`, the TGI in the assay on COLO 205 colon was over 100 µM; in the assay with 786-0 renal, 31.7 µM; with OVCAR-8 ovarian it was over 100 µM; with HCT-15 colon it was over 100 µM; with SR leukemia, 40.2 µM; in the assay with SK-MEL-2 melanoma it was over 100 µM. Moreover, the concentration for total growth inhibition (TGI) in the assay on RPMI-8226 leukemia, in the assay on M14 melanoma, in the assay with HOP-92 NSCLC, with MDA-N and with HT29 colon was over 100 µM throughout.
Take `C=C(C)C1CC=C(C)C2(C1)OCC(C)(C)C(C)O2` (configuration not stated): the TGI is 34.5 µM with COLO 205 colon; 33 µM in the assay with 786-0 renal; 31.7 µM with OVCAR-8 ovarian; 33.9 µM in the assay with HCT-15 colon; 43.6 µM with SR leukemia; 34.2 µM in the assay with SK-MEL-2 melanoma. Besides, the TGI turned out to be 43.2 µM with RPMI-8226 leukemia; 47.1 µM with M14 melanoma; 23.6 µM in the assay with HOP-92 NSCLC; 47.4 µM in the assay on MDA-N; 33.2 µM with HT29 colon.
As to `COC(=O)C1(Cc2ccccc2)Cc2ccccc2C1`, the TGI with COLO 205 colon is 35.8 µM; in the assay on 786-0 renal, 81.9 µM; in the assay on OVCAR-8 ovarian, over 100 µM; with HCT-15 colon, over 100 µM; in the assay with SR leukemia, over 100 µM; with SK-MEL-2 melanoma, 25.8 µM. Also, the TGI came to 57.9 µM with RPMI-8226 leukemia; 34.8 µM with M14 melanoma; 46.3 µM in the assay with HOP-92 NSCLC; 49.3 µM with MDA-N; 41.7 µM in the assay with HT29 colon.
